Measured values as given in US20230365592A1 (Agios Pharmaceuticals, Inc., priority 2022, published 2023).

molecular target: T1, human PAH with the R408W mutation (Homo sapiens, UniProt P00439, R408W); assay: Cell Based Phenylalanine Flux Assay; details: A375 cells expressing R408W PAH; 24 hrs with compound, then 20 µM sepiapterin and 800 µM 13C9,15N-Phenylalanine for 4 hours; 13C-Tyrosine by LC-MS; average where tested multiple times; read-out: AC50;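 also: after compound treatment, cells received sepiapterin plus isotope-labelled Phenylalanine for 4 hours, then labelled Tyrosine in the medium was quantified, 10-point 2-fold dilution series run in duplicate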
T1 construct: expressed in transfected cells
T1 sequence (P00439 1-452 R408W): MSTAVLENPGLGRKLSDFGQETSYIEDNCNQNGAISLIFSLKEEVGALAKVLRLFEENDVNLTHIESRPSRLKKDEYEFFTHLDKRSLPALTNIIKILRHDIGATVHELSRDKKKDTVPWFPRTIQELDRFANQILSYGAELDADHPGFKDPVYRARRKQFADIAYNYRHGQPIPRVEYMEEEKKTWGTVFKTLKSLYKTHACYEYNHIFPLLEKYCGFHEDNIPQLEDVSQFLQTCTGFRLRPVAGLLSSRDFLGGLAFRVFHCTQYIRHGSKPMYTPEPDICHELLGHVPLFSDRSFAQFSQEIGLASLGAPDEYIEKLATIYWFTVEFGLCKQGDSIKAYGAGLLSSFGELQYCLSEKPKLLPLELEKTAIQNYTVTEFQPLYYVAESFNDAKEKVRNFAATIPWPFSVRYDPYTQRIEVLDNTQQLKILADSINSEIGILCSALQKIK

| AC50 [µM] | Structure (SMILES) |
| --- | --- |
| 1 to 5 | Cc1cccc2cc(C3c4nc[nH]c4CCN3C(=O)c3nc(C(F)(F)F)nn3C)nn12 (stereo not shown) |
| 1 to 5 | Cc1ccc2c(C(=O)N3CCc4[nH]cnc4C3c3cc4cccc(C)n4n3)cnn2c1 (stereo not shown) |
| 1 to 5 | Cc1ccn2nc(C3c4nc[nH]c4CCN3C(=O)c3nnc(C(C)(C)C)o3)cc2c1 (stereo not shown) |

same assay, conditions: A375 cells expressing human PAH R408W; 24 hrs compound incubation; 13C-Tyrosine by LC-MS; average where tested multiple times; read-out: AC50

| AC50 [µM] | Structure (SMILES) |
| --- | --- |
| < 0.5 | Fc1cccc(F)c1-c1nnc(N2CCc3[nH]cnc3[C@H]2c2cc3cccc(C(F)F)n3n2)o1 [Example 2093, (S)-2-(4-(7-(difluoromethyl)pyrazolo[1,5-a]pyridin-2-yl)-1,4,6,7-tetrahydro-5H-imidazo[4,5-c]pyridin-5-yl)-5-(2,6-difluorophenyl)-1,3,4-oxadiazole] |
| 1 to 5 | O=C(c1cnn2ccccc12)N1CCc2[nH]cnc2[C@H]1c1cc2cccc(Cl)n2n1 [Example 2424, (S)-(4-(7-chloropyrazolo[1,5-a]pyridin-2-yl)-6,7-dihydro-1H-imidazo[4,5-c]pyridin-5(4H)-yl)(pyrazolo[1,5-a]pyridin-3-yl)methanone] |
| > 5 | CCc1cccn2nc([C@H]3c4nc[nH]c4CCN3C(=O)c3nnc(-c4ccn(C)n4)o3)cc12 [Example 1926, (R)-(4-(4-ethylpyrazolo[1,5-a]pyridin-2-yl)-1,4,6,7-tetrahydro-5H-imidazo[4,5-c]pyridin-5-yl)(5-(1-methyl-1H-pyrazol-3-yl)-1,3,4-oxadiazol-2-yl)methanone] |
| < 0.5 | O=C(c1nnc(C2CC2)s1)N1CCc2[nH]cnc2[C@H]1c1cc2c(F)cccn2n1 [Example 1993, (S)-(5-cyclopropyl-1,3,4-thiadiazol-2-yl)(4-(4-fluoropyrazolo[1,5-a]pyridin-2-yl)-1,4,6,7-tetrahydro-5H-imidazo[4,5-c]pyridin-5-yl)methanone] |
| > 5 | O=C(c1nnc(-c2ccccn2)o1)N1CCc2[nH]cnc2[C@@H]1c1cc2c(C3CC3)cccn2n1 [Example 1896, (R)-(4-(4-cyclopropylpyrazolo[1,5-a]pyridin-2-yl)-1,4,6,7-tetrahydro-5H-imidazo[4,5-c]pyridin-5-yl)(5-(pyridin-2-yl)-1,3,4-oxadiazol-2-yl)methanone] |
| > 5 | Fc1ccc(-c2nnc(N3CCc4[nH]cnc4[C@@H]3c3cc4cccc(C(F)F)n4n3)o2)cc1 [Example 2130, (R)-2-(4-(7-(difluoromethyl)pyrazolo[1,5-a]pyridin-2-yl)-1,4,6,7-tetrahydro-5H-imidazo[4,5-c]pyridin-5-yl)-5-(4-fluorophenyl)-1,3,4-oxadiazole] |
| > 5 | O=C(c1nnc(C2CC2)o1)N1CCc2[nH]cnc2[C@@H]1c1cc2ccc(F)cn2n1 [Example 2405, (R)-(5-cyclopropyl-1,3,4-oxadiazol-2-yl)(4-(6-fluoropyrazolo[1,5-a]pyridin-2-yl)-6,7-dihydro-1H-imidazo[4,5-c]pyridin-5(4H)-yl)methanone] |
| < 0.5 | COc1cccn2nc([C@@H]3c4nc[nH]c4CCN3c3ccc(C(F)(F)F)cn3)cc12 [Example 2247, (S)-4-(4-methoxypyrazolo[1,5-a]pyridin-2-yl)-5-(5-(trifluoromethyl)pyridin-2-yl)-4,5,6,7-tetrahydro-1H-imidazo[4,5-c]pyridine] |
| < 0.5 | Cc1cccc2cc([C@@H]3c4nc[nH]c4CCN3c3nnc(-c4c(F)cccc4F)o3)nn12 [Example 2091, (S)-2-(2,6-difluorophenyl)-5-(4-(7-methylpyrazolo[1,5-a]pyridin-2-yl)-1,4,6,7-tetrahydro-5H-imidazo[4,5-c]pyridin-5-yl)-1,3,4-oxadiazole] |
| < 0.5 | CC(C)(F)c1ncc(C(=O)N2CCc3[nH]cnc3[C@H]2c2cc3c(C(F)F)cccn3n2)o1 [Example 2106, (S)-(4-(4-(difluoromethyl)pyrazolo[1,5-a]pyridin-2-yl)-1,4,6,7-tetrahydro-5H-imidazo[4,5-c]pyridin-5-yl)(2-(2-fluoropropan-2-yl)oxazol-5-yl)methanone] |

same assay, conditions: A375 cells expressing human R408W PAH; 24 hrs compound incubation; 13C-Tyrosine by LC-MS; average where tested multiple times; read-out: AC50

| AC50 [µM] | Structure (SMILES) |
| --- | --- |
| < 0.5 | Cc1nc(C(C)(C)F)oc1C(=O)N1CCc2[nH]cnc2[C@H]1c1cc2c(C(F)(F)F)cccn2n1 [Example 1262, (S)-(2-(2-fluoropropan-2-yl)-4-methyloxazol-5-yl)(4-(4-(trifluoromethyl)pyrazolo[1,5-a]pyridin-2-yl)-6,7-dihydro-1H-imidazo[4,5-c]pyridin-5(4H)-yl)methanone] |
| < 0.5 | CC(F)(F)c1ncc(C(=O)N2CCc3[nH]cnc3[C@H]2c2cc3ccccn3n2)s1 [Example 612, (S)-(2-(1,1-difluoroethyl)thiazol-5-yl)(4-(pyrazolo[1,5-a]pyridin-2-yl)-6,7-dihydro-1H-imidazo[4,5-c]pyridin-5(4H)-yl)methanone] |
| > 5 | O=C(c1nnc(-c2ccn(C(F)F)n2)o1)N1CCc2[nH]cnc2[C@@H]1c1cc2ccccn2n1 [Example 667, (R)-(5-(1-(difluoromethyl)-1H-pyrazol-3-yl)-1,3,4-oxadiazol-2-yl)(4-(pyrazolo[1,5-a]pyridin-2-yl)-6,7-dihydro-1H-imidazo[4,5-c)pyridin-5(4H)-yl)methanone] |
| < 0.5 | Cc1nc(C(C)(C)F)oc1C(=O)N1CCc2[nH]cnc2[C@H]1c1cc2ccccn2n1 [Example 1250, (S)-(2-(2-fluoropropan-2-yl)-4-methyloxazol-5-yl)(4-(pyrazolo[1,5-a]pyridin-2-yl)-6,7-dihydro-1H-imidazo[4,5-c]pyridin-5(4H)-yl)methanone] |
| < 0.5 | O=C(c1nnc(-c2ncccc2F)o1)N1CCc2[nH]cnc2[C@H]1c1cc2c(C(F)F)cccn2n1 [Example 1426, (S)-(4-(4-(difluoromethyl)pyrazolo[1,5-a]pyridin-2-yl)-6,7-dihydro-1H-imidazo[4,5-c]pyridin-5(4H)-yl)(5-(3-fluoropyridin-2-yl)-1,3,4-oxadiazol-2-yl)methanone] |
| < 0.5 | Cn1nccc1-c1nnc(C(=O)N2CCc3[nH]cnc3[C@H]2c2cc3c(F)cccn3n2)o1 [Example 1018, (S)-(4-(4-fluoropyrazolo[1,5-a]pyridin-2-yl)-6,7-dihydro-1H-imidazo[4,5-c]pyridin-5(4H)-yl)(5-(1methyl-1H-pyrazol-5-yl)-1,3,4-oxadiazol-2-yl)methanone] |
| < 0.5 | Cc1nc([C@H](C)O)oc1C(=O)N1CCc2[nH]cnc2[C@H]1c1cc2c(Cl)cccn2n1 [Example 708, ((S)-4-(4-chloropyrazolo[1,5-a]pyridin-2-yl)-6,7-dihydro-1H-imidazo[4,5-c]pyridin-5(4H)-yl)(2((S)-1-hydroxyethyl)-4-methyloxazol-5-yl)methanone] |
| > 5 | Cc1cccc2cc([C@H]3c4nc[nH]c4CCN3C(=O)c3cnn4cc(N(C)C)ccc34)nn12 [Example 1795, (R)-(6-(dimethylamino)pyrazolo[1,5-a]pyridin-3-yl)(4-(7-methylpyrazolo[1,5-a]pyridin-2-yl)-6,7-dihydro-1H-imidazo[4,5-c]pyridin-5(4H)-yl)methanone] |
| 0.5 to 1 | O=C(c1nnc(-c2cnn(C(F)F)c2)o1)N1CCc2[nH]cnc2[C@H]1c1cc2cccc(C(F)F)n2n1 [Example 1440, (S)-(5-(1-(difluoromethyl)-1H-pyrazol-4-yl)-1,3,4-oxadiazol-2-yl)(4-(7-(difluoromethyl)pyrazolo[1,5-a]pyridin-2-yl)-6,7-dihydro-1H-imidazo[4,5-c]pyridin-5(4H)-yl)methanone] |
| < 0.5 | Cc1ncoc1C(=O)N1CCc2[nH]cnc2[C@H]1c1cc2c(C)cccn2n1 [Example 770, (S)-(4-methyloxazol-5-yl)(4-(4-methylpyrazolo[1,5-a]pyridin-2-yl)-6,7-dihydro-1H-imidazo[4,5-c]pyridin-5(4H)-yl)methanone] |
| 0.5 to 1 | Cn1nc(C(F)F)cc1C(=O)N1CCc2[nH]cnc2[C@H]1c1cc2cccc(C(F)F)n2n1 [Example 1402, (S)-(3-(difluoromethyl)-1-methyl-1H-pyrazol-5-yl)(4-(7-(difluoromethyl)pyrazolo[1,5-a]pyridin-2-yl)-6,7-dihydro-1H-imidazo[4,5-c]pyridin-5(4H)-yl)methanone] |
| 0.5 to 1 | O=C(c1ocnc1C(F)F)N1CCc2[nH]cnc2[C@@H]1c1cc2c(C(F)(F)F)cccn2n1 [Example 1003, (R)-(4-(difluoromethyl)oxazol-5-yl)(4-(4-(trifluoromethyl)pyrazolo[1,5-a]pyridin-2-yl)-6,7-dihydro-1H-imidazo[4,5-c]pyridin-5(4H)-yl)methanone] |
| > 5 | Cc1ncccc1-c1nnc(C(=O)N2CCc3[nH]cnc3[C@@H]2c2cc3cccc(Cl)n3n2)o1 [Example 1335, (R)-(4-(7-chloropyrazolo[1,5-a]pyridin-2-yl)-6,7-dihydro-1H-imidazo[4,5-c]pyridin-5(4H)-yl)(5-(2-methylpyridin-3-yl)-1,3,4-oxadiazol-2-yl)methanone] |
| < 0.5 | O=C(c1nnc(C2CCC2)o1)N1CCc2[nH]cnc2[C@H]1c1cc2c(F)cccn2n1 [Example 1559, (S)-(5-cyclobutyl-1,3,4-oxadiazol-2-yl)(4-(4-fluoropyrazolo[1,5-a]pyridin-2-yl)-6,7-dihydro-1H-imidazo[4,5-c]pyridin-5(4H)-yl)methanone] |
| < 0.5 | CC(O)c1nc(Br)c(C(=O)N2CCc3[nH]cnc3[C@H]2c2cc3ccccn3n2)o1 (single isomer, unassigned) [Example 997] |
